Data: patent US20240124389A1, “COMPOUND OR SALT THEREOF, LIPID PARTICLES, AND PHARMACEUTICAL COMPOSITION” (FUJIFILM Corporation, priority 2021, published 2024)

Tests used:
PTEN mRNA = PTEN mRNA knockdown in vitro (quantification of PTEN mRNA by PCR); format: cell-based, human; conditions: SH-SY5Y cells; PTEN ASO lipid particles of Table 3, ASO 500 nmol/L, exposure 24 hours; PTEN mRNA by ΔΔCt method
From the text: An antisense oligonucleotide nucleic acid (PTEN ASO) for a PTEN protein was purchased from Hokkaido System Science Co., Ltd. PTEN ASO is an oligonucleotide consisting of 20 bases, in which nucleotides are connected by a phosphodiester bond, and the sequence of which is described below.
In an in vitro test using SH-SY5Y cells (American Type Culture Collection), E-MEM (gibco), Ham's F12 (gibco), FBS (gibco), Penicillin-streptomycin (gibco), and NEAA (FUJIFILM Wako Pure Chemical Corporation) were mixed at a ratio of 41.5:41.5:15:1:1 and the mixture was used as a culture medium.
The measurement of PTEN protein mRNA was performed according to the protocol of TaqMan (register trademark) Fast Advanced Cells-to-CT™ Kit (Thermo Fisher Scientific). To A431 cells or SH-SY5Y cells, a dispersion liquid of nucleic acid lipid particles prepared to have a final concentration of 500 nmol/L as an ASO concentration, Naked ASO or PBS was added. After exposure for 24 hours under the control of 37° C. and 5% CO2, the culture supernatant was removed, and the mixture was washed once with PBS at 4° C. After removing the PBS, a lysis solution was added at 50 μL/well, and the mixture was stood still for 5 minutes at room temperature to obtain a cell lysate. For the cell lysate, TaqMan (register trademark) Fast Advanced Cells-to-CT™ Kit (Thermo Fisher scientific), and Hs02621230_s1, FAM/MGB (Thermo Fisher Scientific) and Human GAPDH Endogenous Control (VIC (register trademark)/MGB, Thermo Fisher Scientific) as a PCR reaction reagent were used to perform reverse transcription and PCR reaction.
The PTEN mRNA level of each sample was calculated by the ΔΔCt method. Specifically, the Ct value of GAPDH is subtracted from the Ct value of PTEN to calculate the ΔCt value of each sample. The average value of the ΔCt values of the PBS treatment group was subtracted from the calculated ΔCt value to calculate the ΔΔCt value. For each ΔΔCt value, a relative value with respect to the Naked ASO to be compared was taken as a PTEN mRNA relative value.

[1] = Particle size of FLuc mRNA-encapsulating lipid particles; format: physicochemical
Method: (§1) The compounds described in Table 2, the neutral lipid, cholesterol (product name: Cholesterol HP; NTPPON FINE CHEMICAL CO., LTD.), and 1,2-dimyristoyl-rac-glycero-3-(methylpolyoxyethylene 2000) (hereinafter, called DMG-PEG2000) were dissolved in ethanol at a molar ratio in Table 2 such that the total lipid concentration became 20 mmol/L, thereby obtaining an oil phase.
(§2) As the neutral lipid, 1,2-distearoyl-sn-glycero-3-phosphocholine (product name: COATSOME® MC-8080; NOF corporation) was used in a case of Comparative Example 1, and L-α-dioleoylphosphatidylethanolamine (product name: COATSOME® MC-8181; NOF corporation) was used in a case other than Comparative Example 1.
(§3) FLuc mRNA (product name: CleanCap FLuc mRNA (5 moU); TriLink) was diluted with 50 mmol/L citrate buffer having a pH 4 such that the weight ratio of total lipid concentration to mRNA concentration is about 19:1 to 64:1, obtaining a water phase. Then, the water phase and the oil phase were mixed together using NanoAssemblr (Precision NanoSystems) such that the volume ratio of water phase:oil phase was 3:1, and the mixed solution was 1.5-fold diluted with phosphate buffered saline (PBS), thereby obtaining a dispersion liquid of mRNA lipid particles. The dispersion liquid was dialyzed with a 10% aqueous sucrose solution using a dialysis cassette (Slide-A-Lyzer G2, MWCO: 10 kD, Thermo Fisher Scientific) to remove ethanol, thereby obtaining FLuc mRNA-encapsulating lipid particles.
The particle size of the mRNA-encapsulating lipid particles was measured by 10-fold diluting the dispersion liquid of lipid particle with phosphate buffered saline (PBS) using Zeta-potential & Particle size Analyzer ELS-Z2 (Otsuka Electronics Co., Ltd.).

FLuc mRNA = assay: mRNA encapsulation rate of FLuc mRNA-encapsulating lipid particles; format: physicochemical
Method: as §1, §2, §3
15 to 30 μL of a 3 mol/L aqueous sodium acetate solution and 4.5 to 9 μL of glycogen were added to 30 to 60 μL of the lipid particles retaining mRNA, and 0.75 to 1.5 mL of ethanol was added thereto, so that only the nucleic acids were precipitated while the lipid was dissolved. Then, the supernatant was removed by centrifugation. The precipitates were air-dried for 15 minutes or longer, then water was added thereto to redissolve the precipitates, and the concentration thereof was measured using Nanodrop NF1000 (Thermo Fisher Scientific), thereby quantifying the total mRNA concentration.
The mRNA concentration was quantified using a Quant-iT RiboGreen RNA Assay Kit (Thermo Fisher Scientific) according to the protocol. First, a 20×TE buffer included in the above-described kit was diluted with water, thereby obtaining a 1×TE buffer. TE represents Tris/EDTA (ethylenediaminetetraacetic acid). In order to quantify only mRNA in the outer water phase, the dispersion liquid of lipid particles retaining mRNA was 10,000-fold diluted with the 1×TE buffer. 100 μL of the 10,000-fold diluted dispersion liquid of lipid particles was put into a 96-well plate, then 100 μL of a RiboGreen reagent (reagent included in the Quanti-iT Ribogreen RNA Assay Kit described above) 2,000-fold diluted with the 1×TE buffer was added to a sample, and fluorescence (excitation wavelength: 485 nm, fluorescence wavelength: 535 nm) was measured using a plate reader Infinite F200 (TECAN), thereby quantifying the mRNA concentration in the outer water phase.
By using the quantification results of the total mRNA concentration and the mRNA concentration in the outer water phase that were obtained through the above steps, the mRNA encapsulation rate of the mRNA lipid particles was calculated according to the following Equation.
mRNA encapsulation rate (%)=(total mRNA concentration-mRNA concentration in outer water phase)/total mRNA concentration×100

[2] = aminolipid 45 / DOPE 10 / cholesterol 43.5 / DMG-PEG2000 1.5 mol %, lipid/nucleic acid 32 wt/wt
[3] = aminolipid 40 / DOPE 10 / cholesterol 48.5 / DMG-PEG2000 1.5 mol %, lipid/nucleic acid 64 wt/wt
[4] = aminolipid 50 / DOPE 10 / cholesterol 38.5 / DMG-PEG2000 1.5 mol %, lipid/nucleic acid 64 wt/wt

Particle size [1, 2]	Nucleic acid encapsulation rate (FLuc mRNA; [2])	Particle size [1, 3]	Particle size [1, 4]	Nucleic acid encapsulation rate (FLuc mRNA; [3])	Nucleic acid encapsulation rate (FLuc mRNA; [4])	Compound	PTEN knockdown relative value with respect to Naked ASO (PTEN mRNA)
						CCCCCCC(CCCC)COC(=O)CCCC(CCCCCC)OC(=O)OCCN(CCOC(=O)OC(CCCCCC)CCCC(=O)OCC(CCCC)CCCCCC)CCN(CC)CC (stereo not drawn) [Example 8, Bis(2-butyloctyl) 11-(2-(diethylamino)ethyl)-5,17-dihexyl-7,15-dioxo-6,8,14,16-tetraoxa-11-azahenicosanedioate]	0.65
						CCCCCCCOC(=O)CCCC(CCCC(=O)OCCCCCCC)OC(=O)OCCN(CCOC(=O)OC(CCCC(=O)OCCCCCC)CCCC(=O)OCCCCCC)CCN(CC)CC [Example 37, 1-Heptyl 21-hexyl 11-(2-(diethylamino)ethyl)-5-(4-(heptyloxy)-4-oxobutyl)-17-(4-(hexyloxy)-4-oxobutyl)-7,15-d ioxo-6,8,14,16-tetraoxa-11-azahenicosanedioate]	0.83
83.4 nm	99.1%					CCCCCCC(CCCC(=O)OCC(CCCCC)CCCCC)OC(=O)OCCN(CCCN(CC)CC)CCOC(=O)OC(CCCCCC)CCCC(=O)OCC(CCCCC)CCCCC (stereo not drawn) [Example 13, Bis(2-pentylheptyl) 11-(3-(diethylamino)propyl)-5,17-dihexyl-7,15-dioxo-6,8,14,16-tetraoxa-11-azahenicosanedio ate]	0.34
100.9 nm	98.4%					CCCCCC(CCCCC)COC(=O)CCCC(CCC)OC(=O)OCCN(CCOC(=O)OC(CCC)CCCC(=O)OCC(CCCCC)CCCCC)CCN(CC)CC (stereo not drawn) [Example 21, Bis(2-pentylheptyl) 11-(2-(diethylamino)ethyl)-7,15-dioxo-5,17-dipropyl-6,8,14,16-tetraoxa-11-azahenicosanedioate]	0.33
129 nm	95.0%	104.8 nm	95.1 nm	100.0%	100.0%	CCCCCCCOC(=O)CCCC(CCCC(=O)OCCCCCCC)OC(=O)OCCN(CCOC(=O)OC(CCCC(=O)OCCCCCCC)CCCC(=O)OCCCCCCC)CCN(CC)CC [Example 29, diheptyl 11-(2-(diethylamino)ethyl)-5,17-bis(4-(heptyloxy)-4-oxobutyl)-7,15-dioxo-6,8,14,16-tetraoxa-11-azahenicosanedioate]	0.80
